Measured values reported in a melting point compilation (Tetko et al.).

Row | SMILES | melting point
1 | O=C(O)c1ccc(-n2cncn2)c([N+](=O)[O-])c1 | 274 to 276 °C
2 | NC(=O)COc1ccc(C(=O)CCl)cc1 | 163 to 165 °C
3 | CC(C)(C)Sc1ccc(C(N)=S)nc1 | 129 to 131 °C
4 | O=C(CCl)Cc1c(F)cccc1Cl | 37 to 39 °C
5 | COC(=O)c1ccccc1CS(=O)(=O)Cl | 85 to 87 °C
6 | CS(=O)(=O)N1CC(C(=O)O)Oc2ccccc21 (stereo not drawn) | 167 to 169 °C
7 | O=C(O)c1cc(-c2cccs2)nc2onc(C3CC3)c12 | 236 to 238 °C
8 | NC(=O)CCCC(=O)O | 83 to 85 °C
9 | CCCc1[nH]c2ccccc2c1CC | 43 to 45 °C
10 | Cc1cc(C)n(CC(=O)O)n1 | 187 to 189 °C
11 | OCc1cccc(F)c1Cl | 34 to 36 °C
12 | Cn1cnc([N+](=O)[O-])c1CCl | 127 to 129 °C
13 | CC(C(=O)OCc1ccccc1)S(N)(=O)=O (stereo not drawn) | 83 to 85 °C
14 | CC1(C)NC(=O)N(CCC(=O)NN)C1=O | 176 to 178 °C
15 | CC(C)(C)OC(=O)NCc1nnc(-c2cccnc2)[nH]1 | 196 to 198 °C
16 | NC(=O)CCC(NC(=O)CCC1CCCC1)C(=O)O (stereo not drawn) | 146 to 148 °C
17 | Clc1cc(Cl)cc(-c2noc(Cl)n2)c1 | 67 to 69 °C
18 | CC(C)C(C(=O)O)N1CCN(C)CC1 (stereo not drawn) | 195 to 197 °C
19 | NC(=S)c1cccc(C(=O)O)c1 | 240 to 242 °C
20 | COCCn1c(N)c(NCc2ccccc2)c(=O)[nH]c1=O | 151 to 153 °C

Row | SMILES | melting point
21 | CC(C)(C)c1nn(Cc2ccccc2)cc1C=O | 64 to 66 °C
22 | CCC(C)C1NC(C(=O)O)CS1 (stereo not drawn) | 177 to 179 °C
23 | C/C(=N\O)c1cc(C(=O)O)c[nH]c1=O | 281 to 283 °C
24 | COC(=O)c1ccc(Cl)cc1S(=O)(=O)Cl | 63 to 65 °C
25 | Nc1ccccc1N1CCOC1=O | 88 to 90 °C
26 | Nc1cccc(S(=O)(=O)Nc2ccccc2)c1 | 127 to 129 °C
27 | CC1CCN(CC(=O)O)CC1 | 147 to 149 °C
28 | CCOc1cc(C(N)=NO)cc(Br)c1O | 157 to 159 °C
29 | Cc1c(Br)cc(S(=O)(=O)Cl)cc1[N+](=O)[O-] | 122 to 124 °C
30 | NNC(=O)CSc1nnc(-c2ccccc2)n1-c1ccccc1 | 242 to 244 °C
31 | CNS(=O)(=O)N1CCc2ccccc2C1 | 88 to 90 °C
32 | Nc1cc(C(=O)O)ccc1OCC(F)(F)F | 176 to 178 °C
33 | NC(CCN1CCCCC1)=NO | 137 to 139 °C
34 | O=C1CCCc2sccc2N1 | 119 to 121 °C
35 | O=C(O)CCCCc1ccc(I)cc1 | 109 to 111 °C
36 | NNC(=O)CSc1ccc(Cl)cc1 | 100 to 102 °C
37 | O=C(O)CCN1C(=O)CCC1=O | 131 to 133 °C
38 | CC(=O)c1c(C)oc(N)c1C#N | 241 to 243 °C
39 | Nc1cnc2ccccc2n1 | 138 to 140 °C
40 | CNCc1c(C)nn(-c2ccccc2C)c1C | 41 to 43 °C

Row | SMILES | melting point
41 | O=C(O)Cc1csc(NC(=O)c2ccco2)n1 | 223 to 225 °C
42 | N#CCCNS(=O)(=O)c1ccc(C(=O)O)cc1 | 240 to 242 °C
43 | CC(=O)NCCc1ccc(C(=O)CCl)s1 | 124 to 126 °C
44 | COc1cc(N)c(N)cc1OC | 126 to 128 °C
45 | NCc1cccc(NS(=O)(=O)c2ccc(Cl)cc2)c1 | 186 to 188 °C
46 | CC(=O)NCCc1cc(C(=O)CCl)ccc1F | 97 to 99 °C
47 | CC(C)(C)OC(=O)N1C2CCC1C(C(=O)O)C2 (stereo not drawn) | 144 to 146 °C
48 | CC(C)CNS(=O)(=O)c1ccc(Br)c(C(=O)O)c1 | 174 to 176 °C
49 | Cn1c(S)nnc1-c1ccc(F)cc1 | 111 to 115 °C
50 | Cc1cc(N)n(C(=O)OC(C)(C)C)n1 | 135 to 137 °C
51 | NCC(=O)Nc1ccccc1-n1cncn1 | 118 to 120 °C
52 | CC(C)(C)c1ccc(C2(N)CCCC2)cc1 | 120 to 122 °C
53 | N#CCc1ccc(C(=O)O)cc1 | 189 to 191 °C
54 | NC(Cc1ccc2c(c1)OCO2)C(=O)O (stereo not drawn) | 249 to 251 °C
55 | NCC(O)COc1ccc2c(c1)OCO2 (stereo not drawn) | 107 to 109 °C
56 | CC(C)(C)c1ccc(=O)[nH]n1 | 163 to 165 °C
57 | OC(Cn1cncn1)c1ccc(Cl)cc1 (stereo not drawn) | 111 to 113 °C
58 | CCCOc1ccc2c(c1)OCC(C=O)=C2 | 55 to 57 °C
